Assay results published in PubChem BioAssay AID2060496 (Molecular Pharmacology Branch, DTP, NCI, 2025).

Test system: 276233-004-R-J1-PDC complex spheroid viability
Assay: Anticancer human tumor 276233-004-R-J1-PDC patient-derived colon adenocarcinoma cell line growth inhibition [GQUAD]
Details: for IC50: curve of first compound; for viability, T/C: stronger effect = lower value
Outline: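 Tumor cells were grown as complex spheroids with HUVEC endothelial cells and mesenchymal stem cells as stroma. G-quadruplex stabilizers were combined with targeted agents over half-log dilutions from near the clinical Cmax, or from 10 microM.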

[1] = second compound 0.0316 µM, first compound 0.0316 µM
[2] = second compound 0.0316 µM, first compound 0.1 µM
[3] = second compound 0.0316 µM, first compound 0.316 µM
[4] = second compound 0.0316 µM, first compound 1 µM
[5] = second compound 0.0316 µM, first compound 3.16 µM
[6] = second compound 0.0316 µM, first compound 10 µM
[7] = second compound 0.1 µM, first compound 0.0316 µM
[8] = second compound 0.1 µM, first compound 0.1 µM
[9] = second compound 0.1 µM, first compound 0.316 µM
[10] = second compound 0.1 µM, first compound 1 µM
[11] = second compound 0.1 µM, first compound 3.16 µM
[12] = second compound 0.1 µM, first compound 10 µM
[13] = second compound 0.316 µM, first compound 0.0316 µM
[14] = second compound 0.316 µM, first compound 0.1 µM
[15] = second compound 0.316 µM, first compound 0.316 µM
[16] = second compound 0.316 µM, first compound 1 µM
[17] = second compound 0.316 µM, first compound 3.16 µM
[18] = second compound 0.316 µM, first compound 10 µM
[19] = second compound 1 µM, first compound 0.0316 µM
[20] = second compound 1 µM, first compound 0.1 µM
[21] = second compound 1 µM, first compound 0.316 µM
[22] = second compound 1 µM, first compound 1 µM
[23] = second compound 1 µM, first compound 3.16 µM
[24] = second compound 1 µM, first compound 10 µM
[25] = second compound 3.16 µM, first compound 0.0316 µM
[26] = second compound 3.16 µM, first compound 0.1 µM
[27] = second compound 3.16 µM, first compound 0.316 µM
[28] = second compound 3.16 µM, first compound 1 µM
[29] = second compound 3.16 µM, first compound 3.16 µM
[30] = second compound 3.16 µM, first compound 10 µM
[31] = second compound 10 µM, first compound 0.0316 µM
[32] = second compound 10 µM, first compound 0.1 µM
[33] = second compound 10 µM, first compound 0.316 µM
[34] = second compound 10 µM, first compound 1 µM
[35] = second compound 10 µM, first compound 3.16 µM
[36] = second compound 10 µM, first compound 10 µM
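Note: spheroids exposed to drugs for seven days.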
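Throughout, for viability, T/C: 100% = DMSO vehicle control viability.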

C=CCn1c(=O)c2cnc(Nc3ccc(N4CCN(C)CC4)cc3)nc2n1-c1cccc(C(C)(C)O)n1 + Cc1[nH]c2ccc(F)cc2c1-c1nc2c3cccnc3c3ncccc3c2[nH]1
IC50 (second compound 0.0316 µM): > 10 µM | IC50 (second compound 0.1 µM): > 10 µM | IC50 (second compound 0.316 µM): > 10 µM | IC50 (second compound 1 µM): 0.104 µM | IC50 (second compound 3.16 µM): < 0.0316 µM | IC50 (second compound 10 µM): < 0.0316 µM | viability, T/C [1]: 98.8% | viability, T/C [2]: 86.5% | viability, T/C [3]: 71.4% | viability, T/C [4]: 67.8% | viability, T/C [5]: 66.8% | viability, T/C [6]: 66.6% | viability, T/C [7]: 79.6% | viability, T/C [8]: 79.5% | viability, T/C [9]: 64.5% | viability, T/C [10]: 48.3% | viability, T/C [11]: 61% | viability, T/C [12]: 52.7% | viability, T/C [13]: 64% | viability, T/C [14]: 58.4% | viability, T/C [15]: 60.2% | viability, T/C [16]: 41.1% | viability, T/C [17]: 56.9% | viability, T/C [18]: 61.4% | viability, T/C [19]: 53.8% | viability, T/C [20]: 53.9% | viability, T/C [21]: 48% | viability, T/C [22]: 36.4% | viability, T/C [23]: 51.7% | viability, T/C [24]: 50.4% | viability, T/C [25]: 16.3% | viability, T/C [26]: 14% | viability, T/C [27]: 28.1% | viability, T/C [28]: 18.1% | viability, T/C [29]: 20.2% | viability, T/C [30]: 23.9% | viability, T/C [31]: 36.8% | viability, T/C [32]: 35.8% | viability, T/C [33]: 32.8% | viability, T/C [34]: 26.7% | viability, T/C [35]: 30.3% | viability, T/C [36]: 35.4%

COc1cccc2c1C(=O)c1c(O)c3c(c(O)c1C2=O)CC(O)(C(=O)CO)CC3OC1CC(N)C(O)C(C)O1 (centres undefined) + CN(C)c1ccc(Nc2c3ccc(NC(=O)CCN4CCCC4)cc3nc3cc(NC(=O)CCN4CCCC4)ccc23)cc1
IC50 (second compound 0.0316 µM): > 10 µM | IC50 (second compound 0.1 µM): > 10 µM | IC50 (second compound 0.316 µM): > 10 µM | IC50 (second compound 1 µM): > 10 µM | IC50 (second compound 3.16 µM): < 0.0316 µM | IC50 (second compound 10 µM): > 10 µM | viability, T/C [1]: 88% | viability, T/C [2]: 94.7% | viability, T/C [3]: 77.5% | viability, T/C [4]: 61.7% | viability, T/C [5]: 43% | viability, T/C [6]: 66.7% | viability, T/C [7]: 102% | viability, T/C [8]: 83.8% | viability, T/C [9]: 72.8% | viability, T/C [10]: 74.8% | viability, T/C [11]: 60.6% | viability, T/C [12]: 76.7% | viability, T/C [13]: 80.6% | viability, T/C [14]: 68.4% | viability, T/C [15]: 67.9% | viability, T/C [16]: 40.8% | viability, T/C [17]: 63.1% | viability, T/C [18]: 54.4% | viability, T/C [19]: 55.8% | viability, T/C [20]: 47% | viability, T/C [21]: 53.2% | viability, T/C [22]: 52.3% | viability, T/C [23]: 63.5% | viability, T/C [24]: 52.8% | viability, T/C [25]: 49.6% | viability, T/C [26]: 49.3% | viability, T/C [27]: 56.8% | viability, T/C [28]: 56.4% | viability, T/C [29]: 59.4% | viability, T/C [30]: 53.7% | viability, T/C [31]: 48.6% | viability, T/C [32]: 51.5% | viability, T/C [33]: 55.7% | viability, T/C [34]: 62.6% | viability, T/C [35]: 50.5% | viability, T/C [36]: 43.5%
